Measurements reported in ChEMBL document CHEMBL1201862, “PubChem BioAssay data set” (2004).
The source made the active and inactive calls.

How the values were obtained:
HeLa = assay: HeLa cell cytotoxicity, dose response, cytotoxicity control for MITF activator project, CellTiter-Glo luminescence, cherry-pick samples (AID 540259); format: functional, cell-based; conditions: Homo sapiens
[1] = inhibitors of intracellular T. cruzi replication, confirmation, NIH3T3 host cells, beta-gal luminescence (AID 2044); format: functional, cell-based;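 also: intracellular parasites grown in NIH/3T3 mouse fibroblasts as host cells; luminescent beta-galactosidase reporter signal from transgenic T. cruzi replicating inside host cells; inhibitors lower the luminescence signal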
CAAX prenyl protease 2 = target: T1, CAAX prenyl protease 2 (Homo sapiens, UniProt Q9Y256); assay: human Rce1 protease inhibitors, dose response, biochemical, yeast membranes, quenched-peptide fluorescence, cherry-pick (AID 588849)
T1 sequence (Q9Y256 whole entry): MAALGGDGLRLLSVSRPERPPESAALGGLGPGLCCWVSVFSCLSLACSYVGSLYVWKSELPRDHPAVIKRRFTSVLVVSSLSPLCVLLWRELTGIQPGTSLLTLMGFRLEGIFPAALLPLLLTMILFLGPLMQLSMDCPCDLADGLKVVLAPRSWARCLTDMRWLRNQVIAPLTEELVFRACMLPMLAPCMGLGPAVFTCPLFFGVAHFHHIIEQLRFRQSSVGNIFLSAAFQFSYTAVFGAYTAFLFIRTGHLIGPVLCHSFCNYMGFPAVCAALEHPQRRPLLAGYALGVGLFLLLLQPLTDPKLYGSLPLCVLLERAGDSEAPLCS

CAAX prenyl protease 1 = CAAX prenyl protease 1 (Saccharomyces cerevisiae S288c, UniProt P47154); assay: Ste24 protease inhibitors, dose response, biochemical, S. cerevisiae, plate reader, cherry-pick (AID 488815)
[2] = cytotoxicity toward NIH3T3 fibroblasts, dose response, counter-screen, cell-based, ATP luminescence, mouse fibroblasts (AID 2010); format: functional;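 also: cells exposed to compound for about 90 hours before reading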
Trypsin = Trypsin (Sus scrofa, UniProt P00761); assay: porcine trypsin inhibitors, dose response, selectivity assay for Rce1 protease inhibitor project, biochemical, quenched peptide fluorescence, cherry-pick (AID 488789)
[3] = growth suppression of PTEN-null colon cells, dose response, cell-based, HCT116 PTEN knockout (AID 1047); format: functional;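 also: HCT116 colon tumor cells with PTEN knocked out; cells exposed to compound for 60 hours before readout; potency for loss of cell viability measured by luminescence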
[4] = nonselective inhibitors of cellular cAMP signaling, dose response, counter-screen for MC4R biased antagonist project, cell-based, TR-FRET cAMP detection (AID 602305); format: functional;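 also: U2OS cells stimulated with forskolin near its EC80 as the cAMP inducer; potency is for inhibition of forskolin-stimulated cAMP signaling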
[5] = cytotoxicity in KRAS-transformed pancreatic duct cells, primary screen, cell-based, fluorescence, HTS (AID 431); format: functional; conditions: Homo sapiens;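 also: cell line used: HPDE-C7K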
Jurkat = assay: antigen receptor-induced NF-kB inhibitors, dose response, Jurkat, luciferase reporter, luminescence, B- and T-cell (AID 489004); format: functional, cell-based; conditions: Homo sapiens;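 also: NF-kB luciferase reporter Jurkat cells stimulated with PMA plus ionomycin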
[6] = cytotoxicity in HEK-293T NF-kB-Luc cells, dose response, cytotoxicity control for B/T-cell NF-kB inhibitor project, cell-based, uHTS hits (AID 489019); format: functional;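 also: IC50 reflects cytotoxicity as loss of cell viability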
Melanocortin receptor 4 = Melanocortin receptor 4 (Homo sapiens, UniProt P32245); assay: MC4R antagonist potency on cAMP, dose response, cell-based, TR-FRET, biased antagonists (AID 602298); format: functional;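 also: antagonist potency against agonist-stimulated cAMP production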
[7] = growth suppression of beta-catenin-knockout colon cells, dose response, cell-based, HCT116, human colon tumor (AID 1045); format: functional;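 also: HCT116 colon tumor cells with beta catenin knocked out; cells exposed to compound for 60 hours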
[8] = cytotoxicity in HPDE-C7 cells, cell-based, fluorescence, HTS (AID 430); format: functional; conditions: Homo sapiens
Protein RecA = target: T2, Protein RecA (Mycobacterium tuberculosis, UniProt P9WHJ3); assay: Fluorescence Cell-Free Homogeneous Dose Retest to Identify Inhibitors of RecA-Intein Splicing Activity. [Related pubchem assays (depositor defined):AID2097, AID2223, AID489010, AID492950]; format: functional
T2 sequence (P9WHJ3 whole entry): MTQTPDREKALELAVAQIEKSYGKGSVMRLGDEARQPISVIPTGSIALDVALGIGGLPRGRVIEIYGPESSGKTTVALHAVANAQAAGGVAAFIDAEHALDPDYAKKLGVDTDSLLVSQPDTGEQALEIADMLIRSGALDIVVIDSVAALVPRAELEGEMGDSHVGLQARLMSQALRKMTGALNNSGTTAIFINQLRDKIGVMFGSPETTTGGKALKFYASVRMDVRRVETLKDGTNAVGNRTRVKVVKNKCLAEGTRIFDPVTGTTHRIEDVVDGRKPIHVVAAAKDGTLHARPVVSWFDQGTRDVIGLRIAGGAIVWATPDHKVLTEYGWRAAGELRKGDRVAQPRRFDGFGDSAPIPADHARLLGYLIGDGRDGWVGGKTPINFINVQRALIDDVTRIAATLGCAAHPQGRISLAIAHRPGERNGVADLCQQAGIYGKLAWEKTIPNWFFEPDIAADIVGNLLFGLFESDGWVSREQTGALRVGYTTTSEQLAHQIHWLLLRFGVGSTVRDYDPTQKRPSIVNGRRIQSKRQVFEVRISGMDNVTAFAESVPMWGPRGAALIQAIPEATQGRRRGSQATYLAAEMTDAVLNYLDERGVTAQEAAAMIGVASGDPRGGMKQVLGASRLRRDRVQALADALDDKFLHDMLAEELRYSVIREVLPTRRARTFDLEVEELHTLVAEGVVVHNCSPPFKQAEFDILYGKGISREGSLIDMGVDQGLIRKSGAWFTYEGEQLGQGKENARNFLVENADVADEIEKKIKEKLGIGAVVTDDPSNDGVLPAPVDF

[9] = target: T3, Replicative DNA helicase DnaB (Mycobacterium tuberculosis, UniProt P9WMR3); assay: DnaB intein splicing inhibitors, dose response, biochemical, cell-free fluorescence (AID 449749); format: functional
T3 sequence (P9WMR3 whole entry): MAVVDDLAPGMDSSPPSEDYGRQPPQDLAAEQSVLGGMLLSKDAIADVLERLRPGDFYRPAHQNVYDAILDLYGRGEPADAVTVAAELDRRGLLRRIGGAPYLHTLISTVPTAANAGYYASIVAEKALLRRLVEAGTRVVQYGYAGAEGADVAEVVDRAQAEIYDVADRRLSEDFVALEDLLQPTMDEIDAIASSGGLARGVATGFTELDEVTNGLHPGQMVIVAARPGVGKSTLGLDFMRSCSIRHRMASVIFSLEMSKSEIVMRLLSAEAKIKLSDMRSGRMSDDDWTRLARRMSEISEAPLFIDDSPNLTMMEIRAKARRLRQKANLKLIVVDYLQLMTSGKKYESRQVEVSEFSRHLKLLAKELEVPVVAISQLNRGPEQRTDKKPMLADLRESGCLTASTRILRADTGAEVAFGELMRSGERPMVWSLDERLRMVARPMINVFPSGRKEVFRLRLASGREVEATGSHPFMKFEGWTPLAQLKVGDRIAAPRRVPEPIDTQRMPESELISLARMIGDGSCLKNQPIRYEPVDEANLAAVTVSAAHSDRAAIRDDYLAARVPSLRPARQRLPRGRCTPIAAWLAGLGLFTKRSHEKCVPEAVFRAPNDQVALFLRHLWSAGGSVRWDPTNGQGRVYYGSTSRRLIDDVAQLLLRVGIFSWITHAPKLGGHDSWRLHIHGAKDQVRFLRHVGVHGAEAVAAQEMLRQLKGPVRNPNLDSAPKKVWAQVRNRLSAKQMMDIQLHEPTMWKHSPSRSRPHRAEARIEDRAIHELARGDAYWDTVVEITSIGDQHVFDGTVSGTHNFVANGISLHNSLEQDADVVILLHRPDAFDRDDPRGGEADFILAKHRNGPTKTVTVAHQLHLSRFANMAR

[10] = target: T4, Ubiquitin-conjugating enzyme E2 N (Homo sapiens, UniProt P61088); format: functional;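 also: Dose-response confirmation in a TR-FRET assay detecting UBC13-driven polyubiquitin chain formation, inhibition measured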
T4 sequence (P61088 whole entry): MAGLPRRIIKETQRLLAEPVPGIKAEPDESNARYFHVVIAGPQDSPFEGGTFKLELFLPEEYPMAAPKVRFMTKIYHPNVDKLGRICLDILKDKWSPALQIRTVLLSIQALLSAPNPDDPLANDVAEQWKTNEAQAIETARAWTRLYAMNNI

[11] = Luminescence Cell-Based Dose Retest to Confirm Inhibitors of Cancer Stem Cells. [Related pubchem assays (depositor defined):AID2717, AID2721]; format: functional; conditions: Homo sapiens

Sequence of CAAX prenyl protease 1 (P47154 whole entry): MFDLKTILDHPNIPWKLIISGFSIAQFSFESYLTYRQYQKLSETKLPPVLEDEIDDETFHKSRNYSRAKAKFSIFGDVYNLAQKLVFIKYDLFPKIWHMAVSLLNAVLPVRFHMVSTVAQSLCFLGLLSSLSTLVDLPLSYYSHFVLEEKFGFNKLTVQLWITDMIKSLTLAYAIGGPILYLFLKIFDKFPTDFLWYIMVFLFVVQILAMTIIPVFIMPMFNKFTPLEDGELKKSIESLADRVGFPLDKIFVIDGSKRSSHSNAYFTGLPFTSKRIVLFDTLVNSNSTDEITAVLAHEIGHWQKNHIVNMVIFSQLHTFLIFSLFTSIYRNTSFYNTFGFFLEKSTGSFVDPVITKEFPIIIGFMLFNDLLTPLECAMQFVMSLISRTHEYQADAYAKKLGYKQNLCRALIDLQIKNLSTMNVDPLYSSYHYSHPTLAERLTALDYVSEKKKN
Sequence of Melanocortin receptor 4 (P32245 whole entry): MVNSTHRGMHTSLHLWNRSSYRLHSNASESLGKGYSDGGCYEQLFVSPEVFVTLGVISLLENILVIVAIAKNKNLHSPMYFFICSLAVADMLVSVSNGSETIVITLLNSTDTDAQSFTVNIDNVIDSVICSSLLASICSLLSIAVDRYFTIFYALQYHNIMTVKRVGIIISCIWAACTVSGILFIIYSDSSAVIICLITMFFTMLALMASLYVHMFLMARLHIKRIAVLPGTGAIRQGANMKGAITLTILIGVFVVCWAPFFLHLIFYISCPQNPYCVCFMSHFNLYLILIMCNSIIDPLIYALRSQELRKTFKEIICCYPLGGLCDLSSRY
Sequence of Trypsin (P00761 whole entry): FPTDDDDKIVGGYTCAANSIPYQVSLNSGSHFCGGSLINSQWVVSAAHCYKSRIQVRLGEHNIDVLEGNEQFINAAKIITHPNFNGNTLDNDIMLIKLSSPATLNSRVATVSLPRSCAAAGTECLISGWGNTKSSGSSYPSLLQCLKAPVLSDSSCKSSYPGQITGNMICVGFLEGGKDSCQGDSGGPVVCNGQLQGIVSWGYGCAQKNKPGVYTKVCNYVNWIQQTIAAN

O=C(N/C=C/c1ccccc1)c1ccccc1
active: AC50 (HeLa) 206 µM

CCc1ccc(NC(=O)c2cnc(N3CCN(c4ccccn4)CC3)c3ccccc23)cc1
active: EC50 [1] 3.14 µM | AC50 (CAAX prenyl protease 2) 29.7 µM | AC50 (CAAX prenyl protease 1) 9.95 µM | AC50 (Trypsin) 87.7 µM
> 30 µM (not active): EC50 [2]

N=c1c2c(-c3ccccc3)c(-c3ccccc3)n(Cc3ccccc3)c2ncn1CCCn1ccnc1
inactive: IC50 [4] > 64.6 µM | IC50 [6] 43.2 µM | IC50 (Melanocortin receptor 4) > 64.6 µM
active: EC50 [1] 2.44 µM | EC50 [3] 850 nM | EC50 [5] 17 µM | IC50 (Jurkat) 8.3 µM | EC50 [2] 7.16 µM | EC50 [7] 613 nM | EC50 [8] 5.47 µM

CCN(Cc1ccccc1)S(=O)(=O)c1ccc(C(=O)N(CCCN(C)C)c2nc3cc(C)cc(C)c3s2)cc1
active: EC50 (Protein RecA) 17.7 µM | AC50 [9] 7.04 µM | AC50 (CAAX prenyl protease 1) 17 µM | AC50 [11] 4.44 µM
inactive: IC50 [10] > 20 µM
